Assay results: patent US5919761A, “Peptides for heparin and low molecular weight heparin anticoagulation reversal” (The Board of Regents of the University of Michigan, priority 1995, dated 1999)

Assays:
[1] = Maximum hemodynamic changes and total toxicity score after Enoxaparin reversal, canine study; details: dogs, agent over 10 seconds
Procedure: (§1) Seven female dogs (mean weight 15-20 kg) received intravenous standard, unfractionated heparin (150 IU/kg IV) or LMWH (Enoxaparin, Rhone-Poulac, France; 100 IU/kg factor Xa activity) followed by reversal with commercial salmine protamine (n-protamine purchased from Eli Lilly, Indianapolis, Ind., 1.5 mg/kg (100 IU/mg) IV) or an anticoagulation-reversing agent which is a protamine-like peptide variant identified hereinbelow. In these studies, the anticoagulation-reversing agents were administered over a 10 second interval to maximize the hemodynamic effects.

LMWH (LHN-1, Logiparin) [2] = assay: Percent reversal of LMWH anticoagulation, agents administered at different rates, canine study; format: in vivo, dogs
Procedure: Anticoagulation reversal was assessed by a number of standard coagulation tests performed upon samples of venous blood in the manner described hereinabove. Measurements were made 3 minutes prior to heparin reversal (baseline) and 3 minutes, 10 minutes, and 30 minutes post-administration of the heparin reversal agent.

LMWH (Enoxaparin) = assay: Factor Xa and IIa reversal after LMWH Enoxaparin, canine study; format: in vivo; details: dogs, 3 min
Procedure: Similar studies were conducted to assess the ability of the protamine-like peptide analogs described in this section to reverse the anticoagulation effects of the LMWH, Enoxaparin. FIG. 5a through FIG. 5d are graphical representations of LMWH anticoagulation activities achieved by n-protamine (Protamine [+21]), and compounds [+18BE], [+18KDEL], and [+18RGD] plotted as a percent of reversal against time in minutes. […] Referring to FIG. 5c, compound [+18RGD] dramatically outperforms n-protamine in reversing the heparin antifactor Xa activity of Enoxaparin.

[3] = clinical use; cited from earlier work
[4] = Platelet and white blood cell count after LMWH reversal, canine study; format: in vivo; details: dogs, Logiparin
Procedure: In addition to the measurements reported on Table 6, studies were conducted to measure the activated partial thromboplastin time (aPTT), platelet count, and white blood cell count. […] However, the [+18B] variant produced greater aPTT reversal than protamine at the 3, 10 and 30 minute measurements (64%, 95%, and 93%, respectively, as compared to 50%, 83%, and 78%, respectively, for protamine).

[5] = Percent change in platelet count after standard heparin reversal, cell adhesion ligand analogs, canine study; format: in vivo; details: dogs, agent over 10 seconds
Procedure: In addition to hemodynamic changes, Table 15 lists the percent change in platelet count following administration of n-protamine and the selected variants, as well as the factor Xa and factor IIa reversal, as a percent change at 3 minutes post administration of the compound.

[6] = Hemodynamic studies and total toxicity score after LMWH reversal at different rates, canine study; details: dogs, Logiparin
Procedure: The anticoagulation-reversing agents were administered rapidly over 10 seconds to maximize hemodynamic effects or more slowly over a 3 minute interval. Changes in LMWH anticoagulation occurring from metabolism alone were determined in a separate group of dogs not given any reversal agent.
(§2) Hemodynamic studies were conducted by measuring mean arterial pressure (MAP) in mm Mercury, maximum percent changes in cardiac output (CO) and systemic oxygen consumption (VO2), and heart rate (HR) in beats per minute. Measurements and calculations were made at baseline, before LMWH administration, 3 minutes before reversal, every 30 seconds for 5 minutes after reversal, and at 10, 20, and 30 minutes after reversal.
TTS were developed that reflected maximum declines in each of four parameters (MAP, CO, VO2 and HR) over the first 5 minutes after reversal in the same manner as described hereinabove.

[7] = Percent change in platelet count after Enoxaparin reversal, canine study; format: in vivo; details: dogs, agent over 10 seconds
Procedure: as §1

[8] = Maximum hemodynamic changes and total toxicity score after standard heparin reversal, cell adhesion ligand analogs, canine study; details: dogs, agent over 10 seconds
Procedure: In these studies, the anticoagulation-reversing agents were administered over a 10 second interval to maximize the hemodynamic effects.
Hemodynamic studies were conducted by measuring mean blood pressure (Mean BP) in mm Mercury, maximum percent changes in cardiac output (CO) and systemic oxygen consumption (VO2), and heart rate (HR) in beats per minute. Measurements and calculations were made at baseline, before administration of standard, unfractionated heparin, 3 minutes before reversal, every 30 seconds for 5 minutes after reversal.
Total toxicity scores (TTS) were developed in accordance with the method described hereinabove that reflected maximum declines in each of four parameters (MAP, CO, VO2 and HR) over the first 5 minutes after reversal.

LMWH (LHN-1, Logiparin) [9] = assay: Percent reversal of low molecular weight heparin anticoagulation, in vivo canine study, coagulation tests; design: species or system dogs; details: for aPTT reversal: Logiparin
Procedure: Anticoagulation reversal was assessed by a number of standard coagulation tests performed upon samples of venous blood: activated clotting time (ACT), heparin concentration by assay for FXa inhibitory activity (FXa), thrombin clotting time (TCT), and heparin concentration by assay for FIIa inhibitory activity (FIIa). Measurements were made 3 minutes prior to heparin reversal (baseline) and 3 minutes, 10 minutes, and 30 minutes post-administration of the heparin reversal agent. […] The coagulation data were corrected for naturally occurring metabolism.

[10] = Hemodynamic studies and total toxicity score after LMWH reversal, canine study; details: dogs, Logiparin
Procedure: as §2
Total toxicity scores (TTS) were developed that reflected maximum declines in each of four parameters (MAP, CO, VO2 and HR) over the first 5 minutes after reversal. The maximum changes occurring in an individual dog over the first 5 minutes were divided by the standard deviation derived from the entire group of tested animals and the four scores were added, resulting in a TTS for each individual dog. The TTS values for each dog were then summed to obtain an average TTS and SD for each peptide studied. The more negative the value of TTS, the more toxic the compound.

[11] = system: standard, unfractionated heparin; assay: Percent reversal of standard heparin anticoagulation by variant peptides and protamine, in vivo canine study, coagulation tests; design: species or system dogs; details: for Percent reversal of heparin anticoagulation, ACT: dogs, heparin 150 IU/kg IV, agent 1.5 mg/kg IV over 10 seconds
Procedure: Data are expressed as a mean ±1 SD. Statistical analysis using linear regression for determination of correlation coefficients, and analysis of variance (ANOVA) or unpaired two-way Student's t-test; p<0.05 was accepted as statistically significant.
Anticoagulation reversal was assessed by a number of standard coagulation tests performed upon samples of venous blood: activated clotting time (ACT), prothrombin time (PT), activated partial thromboplastin time (aPTT), thrombin clotting time (TCT), heparin concentration by assay for FXa inhibitory activity (FXa), white cell count (WBC), and platelet counts (PLT). Measurements were made 3 minutes prior to heparin reversal (baseline) and 3 minutes and 30 minutes post-administration of the heparin reversal agent. The "Heparin" row sets forth the observed reversal as a consequence of expected heparin metabolism or degradation alone.

[12] = administered over 10 sec, 3 min
[13] = administered over 10 sec, 10 min
[14] = administered over 10 sec, 30 min
[15] = administered over 3 min, 10 min
[16] = administered over 3 min, 30 min

PR4 S3 RPVR5 PRVSR6 G2 R4 [Protamine [+21], reference compound]
Maximum hemodynamic change, Mean BP ([1]; Enoxaparin 100 IU/kg, 5 minutes): -7 mm Mercury
Maximum hemodynamic change, CO ([1]; Enoxaparin, 5 minutes): -23%
Maximum hemodynamic change, HR ([1]; Enoxaparin, 5 minutes): -17 beats/min
Maximum hemodynamic change, VO2 ([1]; Enoxaparin, 5 minutes): -23%
Total Toxicity Score (TTS) ([1]; Enoxaparin, listed as Prot[+21]): -5.77
Total Toxicity Score (TTS) ([1]; Enoxaparin, listed as [+21] n-protamine): -5.77 ± 3.46
Percent reversal of LMWH anticoagulation, FNa (LMWH (LHN-1, Logiparin) [2]; [12]): 96%
Percent reversal of LMWH anticoagulation, FXa (LMWH (LHN-1, Logiparin) [2]; [12]): 63%
Percent reversal of LMWH anticoagulation, TCT (LMWH (LHN-1, Logiparin) [2]; [12]): 99%
Percent reversal of LMWH anticoagulation, ACT (LMWH (LHN-1, Logiparin) [2]; [13]): 83%
Percent reversal of LMWH anticoagulation, FXa (LMWH (LHN-1, Logiparin) [2]; [13]): 45%
Percent reversal of LMWH anticoagulation, TCT (LMWH (LHN-1, Logiparin) [2]; [13]): 98%
Percent reversal of LMWH anticoagulation, ACT (LMWH (LHN-1, Logiparin) [2]; [14]): 78%
Percent reversal of LMWH anticoagulation, FNa (LMWH (LHN-1, Logiparin) [2]; [14]): 86%
Percent reversal of LMWH anticoagulation, TCT (LMWH (LHN-1, Logiparin) [2]; [14]): 96%
Percent reversal of LMWH anticoagulation, FNa (LMWH (LHN-1, Logiparin) [2]; administered over 3 min, 3 min): 99%
Percent reversal of LMWH anticoagulation, FXa (LMWH (LHN-1, Logiparin) [2]; administered over 3 min, 3 min): 68%
Percent reversal of LMWH anticoagulation, TCT (LMWH (LHN-1, Logiparin) [2]; administered over 3 min, 3 min): 100%
Percent reversal of LMWH anticoagulation, ACT (LMWH (LHN-1, Logiparin) [2]; [15]): 87%
Percent reversal of LMWH anticoagulation, FNa (LMWH (LHN-1, Logiparin) [2]; [15]): 98%
Percent reversal of LMWH anticoagulation, FXa (LMWH (LHN-1, Logiparin) [2]; [15]): 53%
Percent reversal of LMWH anticoagulation, TCT (LMWH (LHN-1, Logiparin) [2]; [15]): 99%
Percent reversal of LMWH anticoagulation, ACT (LMWH (LHN-1, Logiparin) [2]; [16]): 80%
Percent reversal of LMWH anticoagulation, FNa (LMWH (LHN-1, Logiparin) [2]; [16]): 92%
Percent reversal of LMWH anticoagulation, FXa (LMWH (LHN-1, Logiparin) [2]; [16]): 45%
Percent reversal of LMWH anticoagulation, TCT (LMWH (LHN-1, Logiparin) [2]; [16]): 98%
Percent reversal of LMWH anticoagulation, ACT (LMWH (LHN-1, Logiparin) [2]; dogs, Logiparin, agent administered over 10 sec, 3 min post-administration): 96%
Percent reversal of LMWH anticoagulation, ACT (LMWH (LHN-1, Logiparin) [2]; dogs, Logiparin, agent administered over 3 min, 3 min post-administration): 99%
IIa Reversal (LMWH (Enoxaparin)): 98%
Xa Reversal (LMWH (Enoxaparin)): 30%
cases with significant systemic arterial hypertension and pulmonary artery hypertension [3]: about 4%
mean decline in platelet count [4]: -43%
Platelet (percent change in platelet count) [5]: -54%
Total Toxicity Score ([6]; administered over 10 sec): -6.4 ± 3.8
ΔCO ([6]; administered over 10 sec): -32%
ΔHr ([6]; administered over 10 sec): -18 beats per minute
ΔMAP ([6]; administered over 10 sec): -32 mm Mercury
ΔVO2 ([6]; administered over 10 sec): -26%
Total Toxicity Score ([6]; administered over 3 min): -7.2 ± 3.5
ΔCO ([6]; administered over 3 min): -28%
ΔHr ([6]; administered over 3 min): -36 beats per minute
ΔMAP ([6]; administered over 3 min): -18 mm Mercury
ΔVO2 ([6]; administered over 3 min): -23%
Platelet (percent change in platelet count) [7]: -40%
Maximum hemodynamic change, Mean BP ([8]; standard heparin 150 IU/kg IV, 5 minutes): -31 mm Mercury
Maximum hemodynamic change, CO ([8]; standard heparin, 5 minutes): -36%
Maximum hemodynamic change, HR ([8]; standard heparin, 5 minutes): -27 beats/min
Maximum hemodynamic change, VO2 ([8]; standard heparin, 5 minutes): -32%
Total Toxicity Score ([8]; standard unfractionated heparin): -8.02 ± 5.20
aPTT reversal (LMWH (LHN-1, Logiparin) [9]; dogs, 3 minute measurement): 50%
aPTT reversal (LMWH (LHN-1, Logiparin) [9]; dogs, 10 minute measurement): 83%
aPTT reversal (LMWH (LHN-1, Logiparin) [9]; dogs, 30 minute measurement): 78%
Percent reversal of LMWH anticoagulation, ACT (LMWH (LHN-1, Logiparin) [9]; dogs, Logiparin 150 IU/kg, agent 1.5 mg/kg IV after 30 min, 3 min post-administration, corrected for metabolism): 99%
Percent reversal of LMWH anticoagulation, FNa (LMWH (LHN-1, Logiparin) [9]; same study, 3 min): 99%
Percent reversal of LMWH anticoagulation, FXa (LMWH (LHN-1, Logiparin) [9]; same study, 3 min): 63%
Percent reversal of LMWH anticoagulation, TCT (LMWH (LHN-1, Logiparin) [9]; same study, 3 min): 100%
Percent reversal of LMWH anticoagulation, ACT (LMWH (LHN-1, Logiparin) [9]; same study, 10 min): 88%
Percent reversal of LMWH anticoagulation, FXa (LMWH (LHN-1, Logiparin) [9]; same study, 10 min): 45%
Percent reversal of LMWH anticoagulation, TCT (LMWH (LHN-1, Logiparin) [9]; same study, 10 min): 98%
Percent reversal of LMWH anticoagulation, ACT (LMWH (LHN-1, Logiparin) [9]; same study, 30 min): 82%
Percent reversal of LMWH anticoagulation, FNa (LMWH (LHN-1, Logiparin) [9]; same study, 30 min): 86%
Percent reversal of LMWH anticoagulation, FXa (LMWH (LHN-1, Logiparin) [9]; same study, 30 min): 44%
Percent reversal of LMWH anticoagulation, TCT (LMWH (LHN-1, Logiparin) [9]; same study, 30 min): 96%
maximum mean increase in pulmonary artery diastolic (PAD) pressure [10]: +10 mm Mercury
maximum mean increase in pulmonary artery systolic (PAS) pressure [10]: +10 mm Mercury
ΔHR [10]: -18 beats per minute
ΔMAP [10]: -32 mm Mercury
Total Toxicity Score ([10]; first 5 minutes after reversal, 1:1 peptide to LMWH): -7.6 ± 4.8
ΔCO ([10]; maximum percent change): -32%
ΔVO2 ([10]; maximum percent change): -26%
Percent reversal of heparin anticoagulation, ACT ([11]; 3 min post-administration): 102%
Percent reversal of heparin anticoagulation, ACT ([11]; 30 min): 90%
Percent reversal of heparin anticoagulation, APTT ([11]; same study, 3 min): 100%
Percent reversal of heparin anticoagulation, FNa ([11]; same study, 3 min): 102%
Percent reversal of heparin anticoagulation, FXa ([11]; same study, 3 min): 101%
Percent reversal of heparin anticoagulation, PT ([11]; same study, 3 min): 84%
Percent reversal of heparin anticoagulation, TCT ([11]; same study, 3 min): 101%
Percent reversal of heparin anticoagulation, APTT ([11]; same study, 30 min): 127%
Percent reversal of heparin anticoagulation, FXa ([11]; same study, 30 min): 96%
Percent reversal of heparin anticoagulation, PT ([11]; same study, 30 min): 88%
Percent reversal of heparin anticoagulation, TCT ([11]; same study, 30 min): 100%
